Question: With `CCN1C(=N)c2c(OC)cccc2S1(=O)=O` [Compound example 3, 2-Ethyl-4-methoxy-1,1-dioxo-1,2-dihydro-1λ*6*-benzo[d]isothiazol-3-ylideneamine] as the compound, how does the melting point read?
Answer: Its melting point is 111 to 114 °C.

— patent US8017554B2, “3-amino-1,2-benzisothiazole compounds for combating animal pest” (BASF SE, priority 2006, dated 2011)
